The source of these data is patent publication US8772309B2, “Pharmaceutical formulation of apomorphine for buccal administration” (Amarin Pharmaceuticals Ireland Limited, priority 2005, dated 2014).

Series [1] concerns "on-off" fluctuations in Parkinson's disease. The following applies: sublingual administration, patients responsive to subcutaneous apomorphine; cited from earlier work.
Series [2] is described as follows: Ionisation of apomorphine (pKa, un-ionised proportion against pH). The class given is physicochemical. The source says: For optimal buccal absorption the apomorphine used should ideally be un-ionised at physiological pH.
If the pH of the product is adjusted to about 8.0, approximately 10% of the apomorphine becomes un-ionised and thus available for absorption. The pH-dependent degree of ionisation of the drug is maintained by a dynamic equilibrium. As un-ionised drug is removed by absorption, more ionised drug becomes un-ionised in order to restore the equilibrium. As a result there is always a sufficient amount of un-ionised drug generated that can be absorbed rapidly.

The structures appear in SMILES notation.

For `CN1CCc2cccc3c2[C@H]1Cc1ccc(O)c(O)c1-3` [apomorphine], the “Mean time to onset of effect” value in series [1] is reported as “approximately 30 minutes”. Moreover, the “Proportion of apomorphine un-ionised” value in series [2] (pH 3.5) is “negligible”; in series [2] (pH adjusted to about 8.0) it was “approximately 10%”.
